{
  "source": "patent US20150352108A1",
  "about": "“AMINO-PYRIMIDINE COMPOUNDS AS INHIBITORS OF TBK1 AND/OR IKK EPSILON” (Alzheimer's Institute of America, priority 2009, published 2015)",
  "key": {"[1]": {"system": "IFN-α2 mRNA, normal PBMCs", "test": "Agonist induced IFN-α2 mRNA in PBMCs from healthy donors (qRT-PCR)", "assay_type": "cell-based, human", "settings": "LMW poly(I:C), serial dilutions", "description": "(§1) To determine if inhibition of IKKε and/or TBK1 modulates nucleic acid agonist induced gene expression, high molecular weight poly(I:C) (MDA5 agonist) and low weight poly(I:C) (RIG-I agonist) were electroporated into human peripheral blood mononuclear cells (PBMCs) obtained from normal donors, or low molecular weight Poly(I:C) was electroporated into PBMCs from donors that have Systemic Lupus Erythematosus (SLE). Induction of IFN-α2, IFN-β, and BLyS mRNA production was monitored by qRT-PCR.\n(§2) Human PBMCs were collected from healthy donors using routine laboratory procedures. PBMCs from SLE patients were purchased from Astarte Biologics (Redmond, Wash.). The PBMCs were electroporated using Nucleofector® Kit V (Lonza, Walkersville, Md.) with 0.4 ug/mL of high molecular weight poly (I:C) (InvivoGen, San Diego, Calif.) or 0.4 ug/mL low molecular weight poly (I:C) (InvivoGen, San Diego, Calif.) and seeded into wells containing serial dilutions of Example Compound 5 (0.1% final DMSO concentration). […] RNA was quantitated using Quant-iT™ RiboGreen® RNA Assay Kit (Invitrogen, Carlsbad, Calif.). Reverse transcription and real-time PCR were performed using the QuantiTect Probe RT-PCR Kit (Qiagen, Germantown, Md.) and the 7300 Real-Time PCR System (Applied Biosytems, Foster City, Calif.). […]"}, "[2]": {"system": "IKKε-mediated phosphorylation of IRF3", "test": "In-situ phosphorylation of IRF3 (pIRF3 Ser396 ELISA) in HEK293T cells cotransfected with IRF3 and IKKε", "assay_type": "cell-based", "settings": "Homo sapiens, HEK-293T; HEK293T cells, 20 hours, text bins; read-out: IC50 for inhibition of the in-situ IKKε-mediated phosphorylation of IRF3", "method_in_brief": "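Cells for the IRF7 Western blots carried IRF7 and TBK1 plasmids, were seeded at 150,000/well, exposed to compound overnight and probed for pSer477/Ser479 IRF7. The ELISA readout used IRF3 + IKKε-cotransfected HEK293T at 20,000/well with 20 h treatment, quantifying pSer396 IRF3 relative to DMSO, plus a parallel CellTiter-Glo viability check.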"}, "IFN-β1 mRNA, SLE PBMCs": {"system": "IFN-β1 mRNA, SLE PBMCs", "test": "Agonist induced IFN-β1 mRNA in PBMCs from SLE patients (qRT-PCR)", "assay_type": "cell-based, human", "settings": "LMW poly(I:C), serial dilutions", "description": "as §1, §2"}, "[3]": {"system": "RANTES production, human fibroblast-like synoviocytes (HFLS-RA)", "test": "Inhibition of RANTES production by HFLS-RA cells induced with Poly(I:C)", "assay_type": "cell-based", "settings": "Poly(I:C) induction", "procedure": "HFLS cells (HFLS-RA) isolated from patients with rheumatoid arthritis were obtained from Cell Applications, Inc. (San Diego, Calif.). Cells were seeded in synoviocyte growth medium (Cell Applications, Inc., San Diego, Calif.) and allowed to grow overnight. The following day, media was replaced and cells were treated with varying concentrations of selected compounds according to Formula I (e.g., Example Compound 5) (0.1% final DMSO concentration). Two hours later, cells were induced with 50 µg/mL Poly(I:C) (Sigma-Aldrich, St. Louis, Mo.). Supernatants were collected 20 hours post-induction and used to monitor RANTES and IP-10 levels using DuoSet ELISA kits (Human CXCL10/IP-10 DuoSet & Human CCL5/RANTES DuoSet; R&D Systems, Inc., Minneapolis, Minn.)."}, "[4]": {"system": "collagen-induced arthritis", "test": "Collagen-induced arthritis model in mice", "assay_type": "in vivo", "settings": "for day symptoms of arthritis appeared: days 18-34", "procedure": "Male DBA/1 mice were injected with 150 μL of […] bovine type II collagen in Freund's complete adjuvant on days 0 and 21. On days 18 through 34, 100 mg/kg or 150 mg/kg Example Compound 5 was administered orally each day. Also on days 18 through 34, all mouse paws were given a clinical score on a scale of 0-5, based upon the severity of erythema and swelling. Body weights were measured every other day beginning on day 18. Mice were euthanized on day 34, livers were weighed and paws frozen in preparation for subsequent histopathology evaluation."}, "[5]": {"system": "IKKε-mediated phosphorylation of IRF7", "test": "In-situ IKKε-mediated phosphorylation of IRF7 in HEK293T cells (Western blot)", "assay_type": "cell-based"}, "[6]": {"system": "insulin-stimulated glucose uptake, 3T3-L1 adipocytes", "test": "Glucose uptake assay using differentiated 3T3-L1 adipocytes", "assay_type": "cell-based, Murine", "settings": "palmitic acid 48 hours", "procedure": "To determine if IKK/TBK1 inhibitors prevent fatty acid induced insulin resistance in 3T3-L1 adipocytes, insulin-stimulated glucose uptake in the presence of compounds according to Formula I was monitored.\nMurine 3T3-L1 cells were differentiated to adipocytes in 96-well plates by incubating for 2 days in adipogenic cocktail (10 ug/ml insulin, 115 ug/ml isobutylmethylxanthine, 1 uM dexamethasone) followed by incubation in insulin-supplemented medium for 2 days and complete media for an additional 5-10 days. Adipocytes were treated with BSA-complexed palmitic acid and a compound according to Formula I for 48 hours. Following free fatty acid treatment, adipoctyes were insulin-deprived in serum-free media for 2 hours. Subsequently, the media was replaced with KRH buffer containing a compound according to Formula I and 300 nM insulin for 15-20 minutes. [^14C]-labeled 2-deoxyglucose was then added for 15 minutes. Cells were thoroughly washed with ice-cold PBS, and intracellular [^14C]-2-deoxyglucose was measured in cell lysates by scintillation."}, "BLyS mRNA, SLE PBMCs": {"system": "BLyS mRNA, SLE PBMCs", "test": "Agonist induced BLyS mRNA in PBMCs from SLE patients (qRT-PCR)", "assay_type": "cell-based, human", "settings": "LMW poly(I:C), serial dilutions", "description": "as §1, §2"}},
  "data": [
    {"smiles": "N#Cc1cc(-c2ccnc(Nc3ccc(N4CCOCC4)cc3)n2)ccc1OC1CCOCC1", "note": "[Example 5, 5-(2-{[4-(Morpholin-4-yl)phenyl]amino}pyrimidin-4-yl)-2-(tetrahydro-2H-pyran-4-yloxy)benzaonitrile]", "values": [
      {"measurement": "induction of IFN-α2 mRNA", "setting": "[1]", "value": "potently inhibited"},
      {"measurement": "IC50", "setting": "[2]", "value": "< 100", "unit": "nM"},
      {"measurement": "induction of IFN-β1 mRNA", "setting": "IFN-β1 mRNA, SLE PBMCs", "value": "potently inhibited"},
      {"measurement": "IC50", "setting": "[3]", "value": "~60", "unit": "nM"},
      {"measurement": "day symptoms were present in all mice", "setting": "[4]; 100 mg/kg orally", "value": "≤ 30", "unit": "days"},
      {"measurement": "inhibition of AUC of clinical score as a function of time", "setting": "[4]; 100 mg/kg orally", "value": 29, "unit": "%"},
      {"measurement": "inhibition of body weight loss, day 18-34", "setting": "[4]; 100 mg/kg orally", "value": 23, "unit": "%"},
      {"measurement": "reduction of magnitude of clinical score on day 34", "setting": "[4]; 100 mg/kg orally", "value": 20, "unit": "%"},
      {"measurement": "day symptoms of arthritis appeared", "setting": "[4]; 100 mg/kg orally each day", "value": 23, "unit": "days"},
      {"measurement": "day symptoms were present in all mice", "setting": "[4]; 150 mg/kg orally", "value": "≤ 30", "unit": "days"},
      {"measurement": "inhibition of AUC of clinical score as a function of time", "setting": "[4]; 150 mg/kg orally", "value": 45, "unit": "%"},
      {"measurement": "inhibition of body weight loss, day 18-34", "setting": "[4]; 150 mg/kg orally", "value": 42, "unit": "%"},
      {"measurement": "reduction of magnitude of clinical score on day 34", "setting": "[4]; 150 mg/kg orally", "value": 38, "unit": "%"},
      {"measurement": "day symptoms of arthritis appeared", "setting": "[4]; 150 mg/kg orally each day", "value": 24, "unit": "days"},
      {"measurement": "effect in reducing collagen-induced arthritis", "setting": "[4]; 100 and 150 mg/kg orally", "value": "significant, dose-dependent effects"},
      {"measurement": "liver weights", "setting": "[4]; any treatment (100 and 150 mg/kg), day 34", "value": "No differences"},
      {"measurement": "increases in erythema and swelling (cumulative clinical score)", "setting": "[4]; both doses (100 and 150 mg/kg)", "value": "significantly slower"},
      {"measurement": "inhibition of IKKε-mediated phosphorylation of IRF7", "setting": "[5]", "value": "inhibit"},
      {"measurement": "effect on free fatty acid inhibition of insulin-stimulated glucose uptake", "setting": "[6]", "value": "reverse the inhibitory effects of free fatty acid on insulin-stimulated glucose uptake"},
      {"measurement": "induction of BLyS mRNA", "setting": "BLyS mRNA, SLE PBMCs", "value": "potently inhibited"}
    ]}
  ]
}
